# Values quoted from earlier work, collected in patent publication US12465047B2, “Preparation method for L-glufosinate-ammonium powder” (ZHEJIANG UNIVERSITY OF TECHNOLOGY, priority 2020, dated 2025).
# Conditions: stated as the reason for adjusting pH to 2-2.5 in step (4)
structure (smiles),measurement,value
CP(=O)(O)CC[C@H](N)C(=O)O.N [L-glufosinate ammonium],isoelectric point,2.66 pH
